Measurements from ChEMBL document CHEMBL3885861, “Open TG-GATES”.

Organism: Rattus norvegicus
Experiment: Open TG-GATES - Regimen: Single
Type: toxicity, organism-based, Sprague-Dawley
Parameters: regimen Single, gender Male, age 6 weeks
Conditions: in vivo, po, route gavage; for APTT / Bas / Eos / Fbg / Hb / Ht / Lym / MCHC / MCV / Mono / Neu / PT / Plat / RBC / Ret / WBC: tissue Blood; for KIDNEY_L / KIDNEY_R / KIDNEY_TOTAL: tissue Kidney; for LIVER: tissue Liver
[1] = 100 mg/kg, 3 h, tissue Plasma, dose level Low
[2] = 100 mg/kg, 6 h, tissue Plasma, dose level Low
[3] = 100 mg/kg, 9 h, tissue Plasma, dose level Low
[4] = 100 mg/kg, 24 h, dose level Low
[5] = 100 mg/kg, 24 h, tissue Plasma, dose level Low
[6] = 300 mg/kg, 3 h, dose level Middle

SMILES: CN(C)C(=N)N=C(N)N [METFORMIN]
- APTT (100 mg/kg, 3 h, dose level Low): 16 s
- Bas (100 mg/kg, 3 h, dose level Low): 0%
- Eos (100 mg/kg, 3 h, dose level Low): 0.8%
- Fbg (100 mg/kg, 3 h, dose level Low): 241.8 mg/dL
- Hb (100 mg/kg, 3 h, dose level Low): 13.2 g/dL
- Ht (100 mg/kg, 3 h, dose level Low): 39.9%
- Lym (100 mg/kg, 3 h, dose level Low): 77.2%
- MCHC (100 mg/kg, 3 h, dose level Low): 33.1%
- MCV (100 mg/kg, 3 h, dose level Low): 65.8 fL
- Mono (100 mg/kg, 3 h, dose level Low): 3.4%
- Neu (100 mg/kg, 3 h, dose level Low): 18.2%
- PT (100 mg/kg, 3 h, dose level Low): 12.3 s
- Plat (100 mg/kg, 3 h, dose level Low): 118.9 x10_4/uL
- RBC (100 mg/kg, 3 h, dose level Low): 607.2 x10_4/ul
- Ret (100 mg/kg, 3 h, dose level Low): 10%
- WBC (100 mg/kg, 3 h, dose level Low): 81.3 x10_2/uL
- KIDNEY_L (100 mg/kg, 3 h, dose level Low): 0.9 g
- KIDNEY_R (100 mg/kg, 3 h, dose level Low): 0.8 g
- KIDNEY_TOTAL (100 mg/kg, 3 h, dose level Low): 1.7 g
- LIVER (100 mg/kg, 3 h, dose level Low): 8.3 g
- ALP [1]: 1250.2 IU/L
- AST [1]: 72.4 IU/L
- BUN [1]: 8.4 mg/dL
- CRE [1]: 0.2 mg/dL
- Ca [1]: 11.2 mg/dL
- Cl [1]: 105.2 meq/L
- DBIL [1]: 0.008 mg/dL
- GLC [1]: 168.4 mg/dL
- IP [1]: 8.7 mg/dL
- K [1]: 4.3 meq/L
- LDH [1]: 62.6 IU/L
- Na [1]: 139.4 meq/L
- PL [1]: 135.8 mg/dL
- RALB [1]: 2.5 g/dL
- TBIL [1]: 0.042 mg/dL
- TC [1]: 83.6 mg/dL
- TG [1]: 54.6 mg/dL
- TP [1]: 5.1 g/dL
- gamma-GTP [1]: 1.2 IU/L
- TERMINAL_BW (100 mg/kg, 6 h, dose level Low): 200.6 g
- APTT (100 mg/kg, 6 h, dose level Low): 16 s
- Bas (100 mg/kg, 6 h, dose level Low): 0%
- Eos (100 mg/kg, 6 h, dose level Low): 0.8%
- Fbg (100 mg/kg, 6 h, dose level Low): 249 mg/dL
- Hb (100 mg/kg, 6 h, dose level Low): 12.8 g/dL
- Ht (100 mg/kg, 6 h, dose level Low): 38.8%
- Lym (100 mg/kg, 6 h, dose level Low): 75.2%
- MCHC (100 mg/kg, 6 h, dose level Low): 33%
- MCV (100 mg/kg, 6 h, dose level Low): 63.6 fL
- Mono (100 mg/kg, 6 h, dose level Low): 3.4%
- Neu (100 mg/kg, 6 h, dose level Low): 19.6%
- PT (100 mg/kg, 6 h, dose level Low): 12.4 s
- Plat (100 mg/kg, 6 h, dose level Low): 125.3 x10_4/uL
- RBC (100 mg/kg, 6 h, dose level Low): 610.4 x10_4/ul
- Ret (100 mg/kg, 6 h, dose level Low): 9.8%
- WBC (100 mg/kg, 6 h, dose level Low): 95.4 x10_2/uL
- KIDNEY_L (100 mg/kg, 6 h, dose level Low): 0.9 g
- KIDNEY_R (100 mg/kg, 6 h, dose level Low): 0.9 g
- KIDNEY_TOTAL (100 mg/kg, 6 h, dose level Low): 1.7 g
- LIVER (100 mg/kg, 6 h, dose level Low): 7.8 g
- ALT [2]: 55.4 IU/L
- AST [2]: 84.6 IU/L
- BUN [2]: 8.2 mg/dL
- CRE [2]: 0.1 mg/dL
- Ca [2]: 10.8 mg/dL
- Cl [2]: 105.4 meq/L
- DBIL [2]: 0.008 mg/dL
- GLC [2]: 168.4 mg/dL
- IP [2]: 10.2 mg/dL
- K [2]: 4.2 meq/L
- LDH [2]: 71.8 IU/L
- Na [2]: 139.2 meq/L
- PL [2]: 124 mg/dL
- RALB [2]: 2.4 g/dL
- TBIL [2]: 0.046 mg/dL
- TG [2]: 26.8 mg/dL
- TP [2]: 5 g/dL
- gamma-GTP [2]: 1.2 IU/L
- TERMINAL_BW (100 mg/kg, 9 h, dose level Low): 201.1 g
- APTT (100 mg/kg, 9 h, dose level Low): 16.1 s
- Bas (100 mg/kg, 9 h, dose level Low): 0%
- Eos (100 mg/kg, 9 h, dose level Low): 1%
- Fbg (100 mg/kg, 9 h, dose level Low): 233.4 mg/dL
- Hb (100 mg/kg, 9 h, dose level Low): 13 g/dL
- Ht (100 mg/kg, 9 h, dose level Low): 38.8%
- Lym (100 mg/kg, 9 h, dose level Low): 75.2%
- MCHC (100 mg/kg, 9 h, dose level Low): 33.4%
- MCV (100 mg/kg, 9 h, dose level Low): 64 fL
- Mono (100 mg/kg, 9 h, dose level Low): 2.8%
- Neu (100 mg/kg, 9 h, dose level Low): 20.4%
- PT (100 mg/kg, 9 h, dose level Low): 12.6 s
- Plat (100 mg/kg, 9 h, dose level Low): 114.4 x10_4/uL
- RBC (100 mg/kg, 9 h, dose level Low): 607.4 x10_4/ul
- Ret (100 mg/kg, 9 h, dose level Low): 9%
- WBC (100 mg/kg, 9 h, dose level Low): 79.5 x10_2/uL
- KIDNEY_L (100 mg/kg, 9 h, dose level Low): 0.9 g
- KIDNEY_R (100 mg/kg, 9 h, dose level Low): 0.9 g
- KIDNEY_TOTAL (100 mg/kg, 9 h, dose level Low): 1.8 g
- LIVER (100 mg/kg, 9 h, dose level Low): 7.2 g
- ALP [3]: 1288.4 IU/L
- ALT [3]: 46.6 IU/L
- AST [3]: 75 IU/L
- BUN [3]: 9.8 mg/dL
- CRE [3]: 0.1 mg/dL
- Ca [3]: 10.7 mg/dL
- Cl [3]: 105.4 meq/L
- DBIL [3]: 0.01 mg/dL
- GLC [3]: 166.4 mg/dL
- IP [3]: 10.2 mg/dL
- K [3]: 4.2 meq/L
- LDH [3]: 49 IU/L
- Na [3]: 140 meq/L
- PL [3]: 118.4 mg/dL
- RALB [3]: 2.5 g/dL
- TBIL [3]: 0.044 mg/dL
- TG [3]: 30 mg/dL
- TP [3]: 5.1 g/dL
- gamma-GTP [3]: 1 IU/L
- TERMINAL_BW [4]: 208.9 g
- APTT [4]: 16.6 s
- Bas [4]: 0%
- Eos [4]: 1%
- Fbg [4]: 242.6 mg/dL
- Hb [4]: 13 g/dL
- Ht [4]: 38.6%
- Lym [4]: 75%
- MCHC [4]: 33.6%
- MCV [4]: 64.8 fL
- Mono [4]: 3.6%
- Neu [4]: 19.8%
- PT [4]: 12.4 s
- Plat [4]: 109.9 x10_4/uL
- RBC [4]: 596 x10_4/ul
- Ret [4]: 8.8%
- WBC [4]: 95.2 x10_2/uL
- KIDNEY_L [4]: 0.9 g
- KIDNEY_R [4]: 0.9 g
- KIDNEY_TOTAL [4]: 1.8 g
- LIVER [4]: 10.1 g
- ALP [5]: 1691 IU/L
- ALT [5]: 51.6 IU/L
- AST [5]: 80.8 IU/L
- BUN [5]: 14.6 mg/dL
- CRE [5]: 0.2 mg/dL
- Ca [5]: 11.3 mg/dL
- Cl [5]: 105.2 meq/L
- DBIL [5]: 0.016 mg/dL
- GLC [5]: 173.6 mg/dL
- IP [5]: 8.5 mg/dL
- K [5]: 3.9 meq/L
- LDH [5]: 81 IU/L
- Na [5]: 142.6 meq/L
- PL [5]: 140 mg/dL
- RALB [5]: 2.6 g/dL
- TBIL [5]: 0.034 mg/dL
- TG [5]: 99 mg/dL
- TP [5]: 5.5 g/dL
- gamma-GTP [5]: 1.2 IU/L
- TERMINAL_BW [6]: 201.8 g
- APTT [6]: 15.4 s
